Consider 19 compounds from patent publication US9796711B2, “Substituted pyrazolo[3,4-b]pyridin-6-carboxylic acids and method of use” (AbbVie S.àr.l., priority 2015, dated 2017).

Assay [1] addresses T1, ΔF508-CFTR (Homo sapiens, UniProt P13569, DEL508-508).
T1 construct: host or cells: CFBE41o-, doxycycline-inducible
Description: CFTR cell surface levels using HRP-tagged ΔF508-CFTR expressing CFBE cells, intrinsic corrector capacity. The note with it: for EC50: read-out: EC50. Format: cell-based. The method, boiled down: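 Here the cells express ΔF508-CFTR with horseradish peroxidase inserted in extracellular loop 4, so only rescued channel at the surface gives luminescent signal. Compounds act on their own, 20 h at the reduced temperature of 33 °C; values are percent activity relative to DMSO and a 3 μM corrector.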

The target in assay [2] is T1, ΔF508-CFTR. Description: CFTR cell surface levels using HRP-tagged ΔF508-CFTR expressing CFBE cells, in the presence of a co-corrector. As to conditions: HRP-tagged ΔF508-CFTR expressing CFBE cells, in the presence of 3 μM co-corrector; for EC50: read-out: EC50. Format: cell-based. The procedure, abridged: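 Cells were seeded with 0.5 μg/mL doxycycline and held 68 h at 37 °C. Test compounds plus 3 μM co-corrector (final 0.1% DMSO) were then added for 20 h at 33 °C. Washed cells received HRP substrate, and luminescence was normalized between DMSO and 3 μM co-corrector controls.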

Setting [3] is: HRP-tagged ΔF508-CFTR expressing CFBE cells, intrinsic corrector capacity (no co-corrector), 33° C., 20 hours.
The mark [4] stands for this setting: HRP-tagged ΔF508-CFTR CFBE41o- cells, compounds alone (intrinsic corrector capacity), 20 hours at 33° C., positive control 3 μM corrector.
Setting [5] is: HRP-tagged ΔF508-CFTR CFBE41o- cells, compounds alone (intrinsic corrector capacity), 20 hours at 33° C.

T1 sequence (P13569 with tags, fused parts or gaps DEL508-508): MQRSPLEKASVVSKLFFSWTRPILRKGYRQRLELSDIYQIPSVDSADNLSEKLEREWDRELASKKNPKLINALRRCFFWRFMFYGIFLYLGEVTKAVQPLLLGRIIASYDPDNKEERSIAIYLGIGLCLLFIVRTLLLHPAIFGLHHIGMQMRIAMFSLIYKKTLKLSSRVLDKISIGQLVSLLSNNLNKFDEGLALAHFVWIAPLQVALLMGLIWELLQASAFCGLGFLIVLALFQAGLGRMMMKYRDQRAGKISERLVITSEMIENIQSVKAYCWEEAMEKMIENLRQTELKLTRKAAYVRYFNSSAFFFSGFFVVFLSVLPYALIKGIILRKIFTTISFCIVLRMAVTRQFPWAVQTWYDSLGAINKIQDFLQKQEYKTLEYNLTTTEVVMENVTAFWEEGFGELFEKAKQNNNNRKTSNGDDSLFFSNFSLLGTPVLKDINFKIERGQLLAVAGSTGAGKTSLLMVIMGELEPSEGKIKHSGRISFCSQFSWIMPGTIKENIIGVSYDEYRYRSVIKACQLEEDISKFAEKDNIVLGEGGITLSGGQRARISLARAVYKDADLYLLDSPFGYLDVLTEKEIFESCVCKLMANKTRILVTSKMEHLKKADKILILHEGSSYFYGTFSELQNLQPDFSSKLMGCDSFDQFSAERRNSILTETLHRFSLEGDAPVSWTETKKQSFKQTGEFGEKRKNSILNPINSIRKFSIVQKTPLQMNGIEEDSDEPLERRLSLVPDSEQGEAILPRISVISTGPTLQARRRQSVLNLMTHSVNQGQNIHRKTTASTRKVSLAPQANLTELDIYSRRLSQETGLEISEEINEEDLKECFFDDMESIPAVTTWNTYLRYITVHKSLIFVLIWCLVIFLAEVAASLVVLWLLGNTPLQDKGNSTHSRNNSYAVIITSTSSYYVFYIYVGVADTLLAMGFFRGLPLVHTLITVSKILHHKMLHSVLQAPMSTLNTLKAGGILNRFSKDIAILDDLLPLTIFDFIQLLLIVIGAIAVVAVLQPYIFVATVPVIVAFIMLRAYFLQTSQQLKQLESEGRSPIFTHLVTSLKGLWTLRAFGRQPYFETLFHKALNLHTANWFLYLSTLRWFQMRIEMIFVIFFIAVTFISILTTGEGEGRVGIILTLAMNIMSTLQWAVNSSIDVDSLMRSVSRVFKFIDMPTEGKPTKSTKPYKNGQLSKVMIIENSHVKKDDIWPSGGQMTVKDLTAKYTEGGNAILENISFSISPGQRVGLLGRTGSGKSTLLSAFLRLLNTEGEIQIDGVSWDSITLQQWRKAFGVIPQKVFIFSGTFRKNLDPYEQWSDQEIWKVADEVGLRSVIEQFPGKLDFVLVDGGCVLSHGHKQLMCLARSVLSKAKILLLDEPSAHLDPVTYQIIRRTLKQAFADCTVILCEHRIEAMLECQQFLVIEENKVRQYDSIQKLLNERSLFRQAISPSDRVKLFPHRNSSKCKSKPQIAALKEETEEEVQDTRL

For `COc1ccc(-n2nc(C3CCC3)c3c(N4CCC(N5CCOCC5)CC4)cc(C(=O)O)nc32)cc1F` [compound 912, 3-cyclobutyl-1-(3-fluoro-4-methoxyphenyl)-4-[4-(morpholin-4-yl)piperidin-1-yl]-1H-pyrazolo[3,4-b]pyridine-6-carboxylic acid], in assay [1] (setting [3]), the “% Activation” value is recorded as 212.4% and the concentration for a half-maximal effect (EC50) amounted to 720 nM. In addition, in assay [2], the “% Activation” value stood at 397.9% and the EC50 turned out to be 267 nM.

As to `O=C(O)c1cc(N2CCC(CN3CC[C@H](F)C3)CC2)c2c(C3CCC3)nn(-c3ccccc3)c2n1` [compound 833, 3-cyclobutyl-4-(4-{[(3S)-3-fluoropyrrolidin-1-yl]methyl}piperidin-1-yl)-1-phenyl-1H-pyrazolo[3,4-b]pyridine-6-carboxylic acid], in assay [1] (setting [3]), the “% Activation” value came to 231.9% and the EC50 came out at 187 nM. In assay [2], the “% Activation” value is recorded as 443.15% and the EC50 worked out at 142 nM.

For the compound `CC(C)c1nn(C2CCCC2)c2nc(C(=O)O)cc(-c3ccc(N4CCOCC4)nc3)c12` [compound 77, 1-cyclopentyl-4-[6-(morpholin-4-yl)pyridin-3-yl]-3-(propan-2-yl)-1H-pyrazolo[3,4-b]pyridine-6-carboxylic acid], the figures for the “% Activation” value in assay [1] (setting [4]) and in assay [2] were 139.5% and 343.4%, respectively. The EC50 in assay [1] (setting [5]) was 1170 nM; in assay [2], 1110 nM.

Regarding `CC1(c2nn(-c3ccccc3)c3nc(C(=O)O)cc(-c4ccc(N5CCOCC5)cc4)c23)CC1` [compound 129, 3-(1-methylcyclopropyl)-4-[4-(morpholin-4-yl)phenyl]-1-phenyl-1H-pyrazolo[3,4-b]pyridine-6-carboxylic acid], the “% Activation” value in assay [1] (setting [4]) is 178.3%; in assay [2], 380%. The EC50 is 414 nM in assay [1] (setting [5]) and 390 nM in assay [2].

Turning to `CC(C)c1nn(-c2ccc(F)cc2)c2nc(C(=O)O)cc(OCC3(C)CC(F)(F)C3)c12` [compound 652, 4-[(3,3-difluoro-1-methylcyclobutyl)methoxy]-1-(4-fluorophenyl)-3-(propan-2-yl)-1H-pyrazolo[3,4-b]pyridine-6-carboxylic acid], the results for the “% Activation” value in assay [1] (setting [3]) and in assay [2] were 130.6% and 310.6%, respectively. Moreover, the EC50 came out at 334 nM in assay [1] (setting [3]) and 203 nM in assay [2].

Regarding `COC1CCN(c2cc(C(=O)O)nc3c2c(C(C)C)nn3-c2cccc(N(C)C)c2)CC1` [compound 330, 1-[3-(dimethylamino)phenyl]-4-(4-methoxypiperidin-1-yl)-3-(propan-2-yl)-1H-pyrazolo[3,4-b]pyridine-6-carboxylic acid], the “% Activation” value is reported as 326.43% in assay [1] (setting [4]) and 509.93% in assay [2]. Also, the results for the EC50 in assay [1] (setting [5]) and in assay [2] were 405 nM and 197 nM, respectively.

`O=C(O)c1cc(-c2ccc(N3CCOCC3)cc2)c2c(C3CCC3)nn(-c3ccc(C(F)(F)F)cc3)c2n1` [compound 356, 3-cyclobutyl-4-[4-(morpholin-4-yl)phenyl]-1-[4-(trifluoromethyl)phenyl]-1H-pyrazolo[3,4-b]pyridine-6-carboxylic acid]: the “% Activation” value in assay [1] (setting [4]) stood at 152.8%; in assay [2], 331.9%. Besides, the 50% effective concentration (EC50) was 489 nM in assay [1] (setting [5]) and 428 nM in assay [2].

For `O=C(O)c1cc(N2C[C@@H](F)C[C@@H]2CO)c2c(C3CCC3)nn(-c3ccccc3)c2n1` [compound 514, 3-cyclobutyl-4-[(2R,4S)-4-fluoro-2-(hydroxymethyl)pyrrolidin-1-yl]-1-phenyl-1H-pyrazolo[3,4-b]pyridine-6-carboxylic acid], in assay [1] (setting [3]), the “% Activation” value is listed as 37.34% and the EC50 worked out at 3340 nM. In assay [2], the “% Activation” value is 178.2% and the EC50 worked out at 3330 nM.

Turning to `O=C(O)c1cc(-c2ccc(N3CCN(C4CC4)CC3)nc2)c2c(C3CCC3)nn(C3CCCCC3)c2n1` [compound 868, 3-Cyclobutyl-1-cyclohexyl-4-[6-(4-cyclopropylpiperazin-1-yl)-pyridin-3-yl]-1H-pyrazolo[3,4-b]pyridine-6-carboxylic acid], in assay [1] (setting [3]), the “% Activation” value is listed as 140.3% and the EC50 amounted to 239 nM. Besides, in assay [2], the “% Activation” value is given as 337.8% and the EC50 turned out to be 176 nM.

On to `Cc1cc(-n2nc(C3CCC3)c3c(N4CCC(N5CCOCC5)CC4)cc(C(=O)O)nc32)ccc1F` [compound 824, 3-cyclobutyl-1-(4-fluoro-3-methylphenyl)-4-[4-(morpholin-4-yl)piperidin-1-yl]-1H-pyrazolo[3,4-b]pyridine-6-carboxylic acid], for which, in assay [1] (setting [3]), the “% Activation” value is on record as 338.9% and the EC50 was determined as 180 nM. Besides, in assay [2], the “% Activation” value amounted to 535.65% and the EC50 is 277 nM.

Consider `COC1CCN(c2cc(C(=O)O)nc3c2c(C(C)C)nn3-c2ccnc(N3CCCC3)c2)CC1` [compound 412, 4-(4-methoxypiperidin-1-yl)-3-(propan-2-yl)-1-[2-(pyrrolidin-1-yl)pyridin-4-yl]-1H-pyrazolo[3,4-b]pyridine-6-carboxylic acid], for which, in assay [1] (setting [3]), the “% Activation” value stood at 215.6% and the EC50 was 460 nM. Further, in assay [2], the “% Activation” value is reported as 387.2% and the EC50 came out at 307 nM.

With `CCCN1CCCN(c2cc(C(=O)O)nc3c2c(C(C)C)nn3-c2ccc(F)cc2)CC1` [compound 766, 1-(4-fluorophenyl)-3-(propan-2-yl)-4-(4-propyl-1,4-diazepan-1-yl)-1H-pyrazolo[3,4-b]pyridine-6-carboxylic acid], in assay [1] (setting [3]), the “% Activation” value is recorded as 54.3% and the EC50 turned out to be 1670 nM. For the same compound, in assay [2], the “% Activation” value was found to be 213.4% and the EC50 worked out at 1180 nM.

For `O=C(O)c1cc(N2CCC(CN3CCC4(COC4)C3)CC2)c2c(C3CCC3)nn(-c3ccccc3)c2n1` [compound 842, 3-cyclobutyl-4-{4-[(2-oxa-6-azaspiro[3.4]octan-6-yl)methyl]piperidin-1-yl}-1-phenyl-1H-pyrazolo[3,4-b]pyridine-6-carboxylic acid], the entries for the “% Activation” value in assay [1] (setting [3]) and in assay [2] were 162.5% and 370%, respectively. Besides, the EC50 in assay [1] (setting [3]) amounted to 628 nM; in assay [2], 582 nM.

Regarding `CC(C)c1nn(-c2ccc(F)c(F)c2)c2nc(C(=O)O)cc(-c3ccc(N4CCOCC4)cc3)c12` [compound 243, 1-(3,4-difluorophenyl)-4-[4-(morpholin-4-yl)phenyl]-3-(propan-2-yl)-1H-pyrazolo[3,4-b]pyridine-6-carboxylic acid], the results for the “% Activation” value in assay [1] (setting [4]) and in assay [2] were 224.73% and 402.73%, respectively. The figures for the half-maximal effective concentration (EC50) in assay [1] (setting [5]) and in assay [2] were 660 nM and 408 nM, respectively.

As to `COCC(COC)Oc1cc(C(=O)O)nc2c1c(C1CCC1)nn2-c1ccccc1` [compound 491, 3-cyclobutyl-4-[(1,3-dimethoxypropan-2-yl)oxy]-1-phenyl-1H-pyrazolo[3,4-b]pyridine-6-carboxylic acid], in assay [1] (setting [3]), the “% Activation” value came to 82.97% and the concentration giving a half-maximal response (EC50) was found to be 2280 nM. In assay [2], the “% Activation” value is recorded as 256.5% and the half-maximal effective concentration (EC50) amounted to 966 nM.

For the compound `O=C(O)c1cc(N2CCC(CN3CCCCC3)CC2)c2c(C3CCC3)nn(-c3ccccc3)c2n1` [compound 686, 3-cyclobutyl-1-phenyl-4-{4-[(piperidin-1-yl)methyl]piperidin-1-yl}-1H-pyrazolo[3,4-b]pyridine-6-carboxylic acid], in assay [1] (setting [3]), the “% Activation” value amounted to 240.4% and the EC50 is 1670 nM. In addition, in assay [2], the “% Activation” value stood at 431.1% and the concentration giving a half-maximal response (EC50) is 237 nM.

As for `O=C(O)c1cc(N2CCC(N3CCOCC3)CC2)c2c(C3CCC3)nn(-c3ccnc(C4CCOCC4)c3)c2n1` [compound 819, 3-cyclobutyl-4-[4-(morpholin-4-yl)piperidin-1-yl]-1-[2-(oxan-4-yl)pyridin-4-yl]-1H-pyrazolo[3,4-b]pyridine-6-carboxylic acid], in assay [1] (setting [3]), the “% Activation” value was determined as 174.7% and the EC50 amounted to 3330 nM. Besides, in assay [2], the “% Activation” value was determined as 313.1% and the EC50 was found to be 3330 nM.

Consider `Cc1nn(-c2ccccc2)c2nc(C(=O)O)cc(N3CCC4(CCNC4=O)C3)c12` (stereo not shown) [compound 313, 3-methyl-4-(6-oxo-2,7-diazaspiro[4.4]nonan-2-yl)-1-phenyl-1H-pyrazolo[3,4-b]pyridine-6-carboxylic acid], for which the “% Activation” value in assay [1] (setting [4]) is recorded as 11.239%; in assay [2], 132.2%. Besides, the EC50 in assay [1] (setting [5]) and in assay [2] was 7500 nM in each case.

As for `CC(C)c1nn(-c2ccc(F)cc2)c2nc(C(=O)O)cc(-c3cnc(N(C)C4CCOCC4)nc3)c12` [compound 280, 1-(4-fluorophenyl)-4-{2-[methyl(oxan-4-yl)amino]pyrimidin-5-yl}-3-(propan-2-yl)-1H-pyrazolo[3,4-b]pyridine-6-carboxylic acid], the figures for the “% Activation” value in assay [1] (setting [4]) and in assay [2] were 238.6% and 440.83%, respectively. Besides, the values for the EC50 in assay [1] (setting [5]) and in assay [2] were 485 nM and 249 nM, respectively.
